Assay results taken from patent US12578339B2, “Hexokinase 1 isoform B for use as a prognosis marker and specific target against cancer” (ISTANBUL MEDIPOL UNIVERSITESI, priority 2019, dated 2026).
“Also recorded” adds a separate entry of the source.

Columns and labels:
Format in all cases: cell-based, Human
A549 HK1b−/− cells [1] = assay: Immunoblot analysis of apoptotic, autophagic and survival signaling
Experimental: (§1) Cells were harvested and washed in PBS solution, collected, and then subjected to lysis in RIPA buffer containing proteinase inhibitor cocktail and phosphatase inhibitor cocktail (Roche). The lysates were subjected to centrifugation at 10,000 g at 4 C for 20 minutes and the supernatants removed. The total protein ([…]) was fractioned by 10% SDS-PAGE and electrophoretically transferred to Immobilon-FL PVDF membranes. The membrane was blocked with blocking buffer (Li-Cor) at room temperature for 1 hour, and then incubated with appropriate primary antibody at 4 C overnight. After washing with PBS containing 0.05% […] (PBST), the membrane was incubated with 1:2500 dilutions of appropriate secondary antibody for 2 hours at room temperature. The membrane was washed with PBST again, and Pierce ECL Western Blotting Substrate (Thermo Scientific) was used for development of immunoreactive bands. For immunoblotting of tissue samples, proteins were extracted from tumor and adjacent non-tumor lung samples collected from human NSCLC patients, snap frozen in liquid nitrogen, and stored at −80° C. Then protein lysis buffer (described above) was added to samples. Samples were vortexed, homogenized and subjected to three freeze/thaw cycles in dry ice, centrifuged and supernatant collected, and stored at −80° C. for subsequent immunoblotting.

A549 WT cells [2] = assay: as above
Experimental: as §1

A549 HK1b−/− cells [3] = assay: Flow cytometric quantification of cell death by propidium iodide staining; settings: IC50 concentration (47 μM), 48 hrs
A549 HK1b−/− cells [4] = assay: Cell viability assay (CellTiter-Blue); settings: 48 h treatment
Experimental: (§2) Twenty-four hours following seeding (15,000 cells/well) in a 96-well plate, A549 and A549 HK1b^−/− cells (70%-80% confluent) were treated with vehicle (PBS/Saline), or cisplatin with concentrations range from 0-100 μM/ml and the cells incubated for a further 48 h. The cell viability was determined using the CellTiter-Blue assay kit (Promega) according to the manufacturer's instructions and absorbance measured at 595 nm with a microplate reader (Model 3550, Bio-Rad Laboratories, CA, USA). IC50 was defined as the concentration causing a 50% reduction in absorbance relative to the negative control. IC50 was determined by non-linear regression analysis using Graphpad Prism v8 (Graphpad Software, CA, USA).

A549 WT cells [5] = assay: Cell viability assay (CellTiter-Blue); settings: A549 WT control group, 48 h treatment
Experimental: as §2

A549 HK1b−/− cells [6] = assay: Seahorse Mito Stress Test (OCR); settings: between treated A549 WT and A549 HK1b−/− cells
Experimental: (§3) For Seahorse XFe96 assays, cells were seeded at pre-optimized final concentration 1.5×10^4 cells/well onto Seahorse XF-96-well plates and Glycolytic rate, Glycolysis stress and Mito Stress Tests were performed following the manufacturer's specifications (Seahorse Bioscience, North Billerica, MA). Each datum was determined minimally in triplicate. OCR and ECAR were reported as absolute rates (pmoles/min for OCR and mpH/min for ECAR) or normalized against cell counts, or expressed as a percentage of the baseline oxygen consumption.

A549 WT cells [7] = assay: Seahorse Mito Stress Test (OCR); settings: treated A549 WT cells, p=0.02
Experimental: as §3

A549 HK1b−/− cells [8] = assay: Seahorse XF glycolysis stress test (ECAR); settings: treated A549 HK1b−/− cells
Experimental: as §3

A549 HK1b−/− cells [9] = assay: Flow cytometric analysis of mTOR activation; settings: flow cytometry, HK1b deletion plus treatment, p=0.001

Q: Which results are given for `N.N.[Cl][Pt][Cl]` [cisplatin, Cisplatin]?
A: induction of cleavage of PARP and caspase 3 (A549 HK1b−/− cells [1]; A549 HK1b−/− cells compared with A549 WT): significantly higher; autophagy induction (LC3II) (A549 HK1b−/− cells [1]; HK1b deletion plus treatment): induces greater autophagy; phosphorylation of STAT3 transcription factor (A549 HK1b−/− cells [1]; HK1b deletion plus treatment): inhibit significantly; AKT activation and its downstream target GSK3β (A549 HK1b−/− cells [1]; HK1b silencing in combination with treatment): totally inhibited; beclin-1 and ATG13 expression levels (A549 HK1b−/− cells [1]; both A549 WT and A549 HK1b−/− cells): downregulated; phosphorylation of mTOR (A549 HK1b−/− cells [1]; immunoblot, HK1b deletion plus treatment): inhibits significantly; also recorded: inhibits phosphorylation; AMPK phosphorylation (A549 HK1b−/− cells [1]; treated A549 HK1b−/− cells): totally inhibited; Bcl-2 expression (A549 HK1b−/− cells [1]; treated A549 HK1b−/− cells): down-regulation of Bcl-2 expression was significant; HK2 expression (A549 HK1b−/− cells [1]; treated A549 HK1b−/− cells): reduced; cleavage of PARP and caspase 3 (A549 WT cells [2]; immunoblot, A549 WT (and HK1b−/−) cells): induces cleavage of PARP and caspase 3; AMPK phosphorylation (A549 WT cells [2]; treated A549 WT cells): diminished; HK1 expression (A549 WT cells [2]; treated A549 WT cells): significantly upregulated; cell death measured by propidium iodide (PI) staining (A549 HK1b−/− cells [3]): significantly enhance cell death; IC50 (A549 HK1b−/− cells [4]): 47 µM; IC50 (A549 WT cells [5]): 75 µM; basal respiration rate (A549 HK1b−/− cells [6]): no significant change; spare respiratory capacity (A549 WT cells [7]): diminished; basal glycolysis and glycolytic capacity (ECAR) (A549 HK1b−/− cells [8]): further reduction of basal glycolysis and glycolytic capacity even though not significant; also recorded: further reduced ablait not significant; glycolytic reserve (A549 HK1b−/− cells [8]): total absence; mTOR phosphorylation (A549 HK1b−/− cells [9]): significantly inhibits
